# In patent US20170143748A1, “ANTI-TUMOR PHARMACEUTICAL APPLICATION OF PENTACYCLIC TRITERPENE SAPONIN COMPOUNDS OF SZECHUAN MELANDIUM ROOT” (priority 2014, published 2017):
# Several values for one entry are separate records, joined by “and”; a condition that tells them apart may be missing. Identical values can stand only once.
# Experiments:
# HepG2 [1] = test: Inhibitory activity and IC50 to HepG2 at different time of treatment (MTT, Example 4); type: cell-based, Human; conditions: HepG2, 40 μg/ml
# Procedure: Human resources hepatoma cell line HepG2 was provided by Cancer Hospital, Chinese Academy of Medical Sciences. […] Cells were passaged every 2 or 3 days, and all the experiments were carried out on exponentially growing cells.
# Cells were harvested in good growth status and cell suspension was prepared with 2×10^4 cells/mL, added 100 μL per well of 96-well plates, and cultured for 24 h in the incubator. 100 μL liquid medium with no cell was added per well as blank group.
# 3 plates were used as parallel test to culture cells at different period.
# Before medication, supernatant of each well was removed and fresh 1640 medium was added, 180 μL per well. […] Wells of blank and model groups were added with 0.5% DMSO, 20 μL per well. After finished adding drugs, cells were incubated for 24 and 48 h respectively. At the end of incubation, 20 μL MTT was added per well […]. The supernatant was removed carefully and 150 μL DMSO was added per well. After shaken for 10 mins, the absorbance was read at 490 nm and the inhibition rate was calculated with the formula below.
# (§1) Inhibition rate=[(ODmodel−ODblank)−(ODdrugs−ODblank)]/(ODmodel−ODblank)×100%
# IC50 was calculated with Bliss method.
# (§2) The MTT experiment was repeated three times.
# HepG2 [2] = test: MTT inhibition of tumor cells in vitro (Example 3); type: cell-based, Human; conditions: 40 μg/mL; for Inhibition rate, HepG2: 48 hours
# MCF-7 = test: MTT inhibition of tumor cells in vitro (Example 3); type: cell-based, Human; conditions: 48 hours; for Inhibition rate, MCF-7: 40 μg/mL
# Procedure: (§3) Human resources tumor cell line […], […], HT29, MCF-7 and A875 were provided by Cancer Hospital, Chinese Academy of Medical Sciences.
# (§4) Cells were passaged every 2 or 3 days, and all the experiments were carried out on exponentially growing cells.
# (§5) All cells were cultured in a humidified atmosphere (5% CO2 and […]), and passaged every 2 or 3 days. Cells were harvested on exponentially growing phase, and cell suspension was prepared with 2×10^4 cells/mL, added with 100 μL per well of 96-well plates, and cultured for 24 h in incubator. 100 μL medium without cells was added per well as blank group.
# (§6) Compound (1), (2), (3), (4), (7) or (8) was dissolved in DMSO respectively, and diluted with 1640 medium at a final concentration of 400 μg/mL, so as to that of the Cisplatin. Cells were divided into 9 groups, they were blank group, model group, Compound (1), (2), (3), (4), (7) and (8) groups, and Cisplatin group as the positive one, 6 wells per group.
# (§7) Before drug administration, supernatant of each well was removed and fresh 1640 medium was added, 180 μL per well. Compounds and Cisplatin were added with 20 μL per well respectively at a final concentration of 40 μg/mL. Wells of blank and model groups were added with 0.5% DMSO, 20 μL per well. 48 hours later, 20 μL MTT was added per well and continued to culture for 4 hours, then the supernatant was replaced carefully and DMSO was added with 150 μL per well to end the experiment. The 96-well plates were shaken for 10 mins and read the absorbance at 490 nm. The Inhibition rate was calculated.
# as §1, §2
# A875 = test: MTT inhibition of tumor cells in vitro (Example 3); type: cell-based, Human; conditions: 48 hours; for Inhibition rate, A875: 40 μg/mL
# Procedure: as §3, §4, §5, §6, §7, §1, §2
# BGC823 = test: MTT inhibition of tumor cells in vitro (Example 3); type: cell-based, Human; conditions: 40 μg/mL; for Inhibition rate, BGC823: 48 hours
# Procedure: as §3, §4, §5, §6, §7, §1, §2
# HT29 = test: MTT inhibition of tumor cells in vitro (Example 3); type: cell-based, Human; conditions: 40 μg/mL; for Inhibition rate, HT29: 48 hours
# Procedure: as §3, §4, §5, §6, §7, §1, §2
# HepG2 human heptoma = test: Anti-HepG2 human heptoma in BALB/c (nu/nu) nude mice; conditions: for tumor volume of HepG2-bearing nude mice: Sc
# Procedure: 70 male BALB/c (nu/nu) nude mice (18-20 g, License NO. SCXK (BJ) 2009-0017, National Institutes for Food and Drug Control.) were adaptively bred for one week, and then used in the following experiment.
# Human resources hepatoma cell line HepG2 was cultured in RPMI-1640 medium containing 100 U/mL Penicillin and 100 μg/mL Streptomycin with 10% fetal bovine serum and maintained at 37° C. in a humidified atmosphere (5% CO2 and […]).
# 70 BALB/c (nu/nu) nude mice were adaptively bred for 1 week, HepG2 cells were inoculated subcutaneously into the back of nude mice, 1×10^7 cells per mouse. […] 3 days after inoculation, mice of every therapeutic group were all given the relevant compounds or drugs for 3 weeks, and others were given isodose physiological saline.
# The body weight and the size of tumor were measured and recorded weekly. The tumor volume was calculated with the formula below:
# tumor volume V=π/6×a×b^2 (a, b means the transverse and longitudinal length of tumor)
# At the end of administration, mice were fastened for 8 hours, weighed the fasting body weight, dropped off eyeball to collect blood, centrifuged and collected serum for next experiment. The tumors were departed and weighed. Tumor Index and inhibition rate were calculated as below:
# Tumor Index=Tumor mass (mg)/body weight of animal (g)
# Inhibition rate=(Average tumor massControl group−Average tumor massadministration group)/Average tumor massControl group×100%
# Mice in the model group were injected with sterile water (10 ml/kg BW), Sc. All the animals were treated at 9 am for 3 weeks.
# Determination of body weights: Body weights of animals were weighed and recorded once a week.
# Tumor measurement: The transverse and longitudinal lengths of tumor were measured with vernier caliper weekly.
# End of the experiment: After mice being administrated for 3 weeks (21 days), the experiment was terminated.
# [3] = system: BGC823 human gastric adenocarcinoma; test: Anti-BGC823 human gastric adenocarcinoma in BALB/c (nu/nu) nude mice; type: in vivo; set-up: tumor volume of BGC823-bearing nude mice / Tumor mass: unit not given here; conditions: for body weight of BGC823-bearing nude mice / tumor volume of BGC823-bearing nude mice: Sc; for body weight of BGC823-bearing nude mice: in g (unit assumed)
# Procedure: Human resources gastric adenocarcinoma cell line BGC823 was cultured in the same condition as the experiment 4.
# The body weight and the tumor volume were measured and recorded weekly. The tumor volume was calculated according to the formula below.
# Tumors were departed and weighed. Tumor Index and inhibition rate were calculated as below: […]
# HT29 human colon cancer = test: Anti-HT29 human colon cancer in BALB/c (nu/nu) nude mice; type: in vivo; set-up: body weight of HT29-bearing nude mice / tumor volume of HT29-bearing nude mice / Tumor mass: unit not given here; conditions: for tumor volume of HT29-bearing nude mice: Sc
# Procedure: Human resources Colon cancer cell line HT29 was cultured in the same condition as the experiment 4. […] Mice were randomly assigned into 7 groups: […] The body weight and the tumor volume were measured and recorded weekly. The tumor volume was calculated according to the formula below. […] The tumors were departed and weighed.
# [4] = 1 W, mg/kg BW: total saponins 1.5, Compound 1, combination 1 & 19, 5-FU 20
# [5] = 2 W, mg/kg BW: total saponins 1.5, Compound 1, combination 1 & 19, 5-FU 20
# [6] = 3 W, mg/kg BW: total saponins 1.5, Compound 1, combination 1 & 19, 5-FU 20
compound,measurement,setting,value
"N.N.[Cl][Pt][Cl] [Cisplatin, reference compound]",Inhibition rate,HepG2 [1]; 24 h,47.94 ± 6.328%
same,Inhibition rate,HepG2 [1]; 48 h,99.45 ± 0.36%
same,"Inhibition rate, HepG2",HepG2 [2],82.15 ± 4.05%
same,"Inhibition rate, MCF-7",MCF-7,97.53 ± 2.05%
same,"Inhibition rate, A875",A875,90.13 ± 1.98%
same,"Inhibition rate, BGC823",BGC823,97.86 ± 4.12%
same,"Inhibition rate, HT29",HT29,99.04 ± 1.15%
"COC(=O)C1CC(O[C@H]2CC[C@]3(C)[C@H]4C=CC5[C@@H]6CC(C)(C)CC[C@]6(C(=O)OC6OC(C)C(OC(=O)/C=C\c7ccc(C)cc7)C(OC(C)=O)C6OC6CC(C)C(O)C(O)C6O)[C@H](O)C[C@@]5(C)[C@]4(C)CC[C@H]3[C@]2(C)C=O)C(OC2OC(CO)C(O)C(O)C2O)C(OC2OCC(O)C(O)C2O)C1O (stereo partly drawn) [Compound (4), sinocrassuloside IV]",inhibition at 40 µg/mL,"HepG2 [2]; Homo sapiens, HepG2, 48 h, read-out: Inhibition rate, HepG2",65.7 ± 1.05%
same,inhibition at 40 µg/mL,"MCF-7; Homo sapiens, MCF7, 40 μg/mL, read-out: Inhibition rate, MCF-7",56.2 ± 1.96%
same,inhibition at 40 µg/mL,"A875; Homo sapiens, A875, 40 μg/mL, read-out: Inhibition rate, A875",70.5 ± 9.76%
same,inhibition at 40 µg/mL,"BGC823; Homo sapiens, BGC-823, 48 h, read-out: Inhibition rate, BGC823",92.4 ± 6.24%
same,inhibition at 40 µg/mL,"HT29; Homo sapiens, HT-29, 48 h, read-out: Inhibition rate, HT29",90.6 ± 5.6%
"CCCCOC(=O)C1OC(O[C@H]2CC[C@]3(C)[C@H]4CC=C5[C@@H]6CC(C)(C)CC[C@]6(C(=O)OC6OC(C)C(OC(=O)/C=C\c7ccc(OC)cc7)C(OC(C)=O)C6OC6OC(C)C(O)C(O)C6O)[C@H](O)C[C@@]5(C)[C@]4(C)CC[C@H]3[C@]2(C)C=O)C(OC2OC(CO)C(O)C(O)C2O)C(OC2OCC(O)C(O)C2O)C1O (stereo partly drawn) [Compound (8), sinocrassuloside XIII]","Inhibition rate, HepG2",HepG2 [2],41.25 ± 1.27%
same,"Inhibition rate, MCF-7",MCF-7,61.32 ± 11.67%
same,"Inhibition rate, A875",A875,55.32 ± 13.35%
same,"Inhibition rate, BGC823",BGC823,56.00 ± 7.90%
same,"Inhibition rate, HT29",HT29,77.22 ± 6.17%
sinocrassuloside VI [Compound (1)],tumor volume of HepG2-bearing nude mice,"HepG2 human heptoma; 1 W, mg/kg BW: total saponins 1.5, Compound 1, combination 1 & 39, Cytoxan 40",922.51 ± 624.95
same,tumor volume of HepG2-bearing nude mice,"HepG2 human heptoma; 2 W, mg/kg BW: total saponins 1.5, Compound 1, combination 1 & 39, Cytoxan 40",1060.32 ± 570.38
same,tumor volume of HepG2-bearing nude mice,"HepG2 human heptoma; 3 W, mg/kg BW: total saponins 1.5, Compound 1, combination 1 & 39, Cytoxan 40",1033.33 ± 656.54
same,Inhibition rate,"HepG2 human heptoma; HepG2-bearing nude mice, after 3 weeks, from average tumor mass vs model",80.05%
same,Tumor mass,"HepG2 human heptoma; HepG2-bearing nude mice, after 3 weeks, mg/kg BW: total saponins 1.5, Compound 1, combination 1 & 39, Cytoxan 40",0.59 ± 0.29
same,Tumor index,"HepG2 human heptoma; HepG2-bearing nude mice, after 3 weeks, tumor mass/body weight",0.03 ± 0.01
same,body weight of BGC823-bearing nude mice,"[3]; 0 W, mg/kg BW: total saponins 1.5, Compound 1, combination 1 & 19, 5-FU 20",20.30 ± 1.06
same,tumor volume of BGC823-bearing nude mice,[3]; [4],850.16 ± 539.70
same,body weight of BGC823-bearing nude mice,[3]; [4],21.50 ± 1.18
same,tumor volume of BGC823-bearing nude mice,[3]; [5],997.88 ± 499.61
same,body weight of BGC823-bearing nude mice,[3]; [5],22.70 ± 1.16
same,tumor volume of BGC823-bearing nude mice,[3]; [6],845.04 ± 239.21
same,body weight of BGC823-bearing nude mice,[3]; [6],23.70 ± 1.06
same,Inhibition rate,"[3]; BGC823-bearing nude mice, after 3 weeks, from average tumor mass vs model",64.54% and 61.54%
same,Tumor mass,"[3]; BGC823-bearing nude mice, after 3 weeks, mg/kg BW: total saponins 1.5, Compound 1, combination 1 & 19, 5-FU 20",1.05 ± 0.36
same,Tumor index,"[3]; BGC823-bearing nude mice, after 3 weeks, tumor mass/body weight",0.04 ± 0.02
same,tumor volume of HT29-bearing nude mice,"HT29 human colon cancer; 1 W, mg/kg BW: total saponins 1.5, Compound 1, combination 1 & 19, PTX 20",1094.99 ± 678.00
same,tumor volume of HT29-bearing nude mice,"HT29 human colon cancer; 2 W, mg/kg BW: total saponins 1.5, Compound 1, combination 1 & 19, PTX 20",907.89 ± 738.11
same,tumor volume of HT29-bearing nude mice,"HT29 human colon cancer; 3 W, mg/kg BW: total saponins 1.5, Compound 1, combination 1 & 19, PTX 20",814.93 ± 450.73
same,Inhibition rate,"HT29 human colon cancer; HT29-bearing nude mice, after 3 weeks, from average tumor mass vs model",50.44%
same,Tumor mass,"HT29 human colon cancer; HT29-bearing nude mice, after 3 weeks, mg/kg BW: total saponins 1.5, Compound 1, combination 1 & 19, PTX 20",1.15 ± 0.52
same,Tumor index,"HT29 human colon cancer; HT29-bearing nude mice, after 3 weeks, tumor mass/body weight",0.05 ± 0.02
same,"Inhibition rate, MCF-7",MCF-7,83.12 ± 2.33%
same,"Inhibition rate, A875",A875,88.02 ± 12.57%
sinocrassuloside VIII [Compound (3)],"Inhibition rate, HepG2",HepG2 [2],74.35 ± 1.51%
same,"Inhibition rate, MCF-7",MCF-7,90.12 ± 7.43%
same,"Inhibition rate, A875",A875,68.35 ± 5.37%
same,"Inhibition rate, BGC823",BGC823,92.09 ± 1.13%
same,"Inhibition rate, HT29",HT29,56.62 ± 4.24%
sinocrassuloside XII [Compound (7)],"Inhibition rate, HepG2",HepG2 [2],21.83 ± 1.53%
same,"Inhibition rate, MCF-7",MCF-7,58.12 ± 6.26%
same,"Inhibition rate, A875",A875,55.64 ± 9.88%
same,"Inhibition rate, BGC823",BGC823,77.08 ± 5.73%
same,"Inhibition rate, HT29",HT29,62.67 ± 3.12%
